Values after ≈ are worked out from the molar mass of the structure shown. “Also recorded” adds a separate entry of the source.
Legend:
ANIT-induced cholestasis [1] = experiment: Chronic treatment rat ANIT model of cholestasis, serum markers; format: in vivo; conditions: oral dosing 0.01 to 3 mg/kg
Procedure: Rats were treated with alpha-naphthyl-isothiocyanate (ANIT) (0.1% w/w) in food for 3 days prior to treatment with the compound at the indicated doses or with vehicle control (“Veh”). A non-cholestatic control group was fed standard chow diet without ANIT, and serve as the non-cholestatic control animals (“Control”), After […] days of oral dosing, the indicated analyte was measured in serum. LLQ, lower limit of quantitation. Mean±SEM; n=5.

ANIT-induced cholestasis [2] = experiment: PK/PD modeling of effective exposure in rat ANIT chronic treatment model; format: in vivo; conditions: drug concentration producing 80% of maximum effect
Procedure: Male Wistar rats were treated with ANIT (0.1% ANIT in chow diet) for 2 weeks. […] The serum samples were collected on day 14 for analysis of biomarkers of hepatobiliary injury (including ALT, AST, bilirubin and bile acids). The PK samples (pre-dose, 0.5, 1, 3, 7, 10 and 24 h, n=3/dose group) were taken on day 13 (at steady-state). AUC0-24 h was determined using Phoenix WinNonlin 6.3 software and the average concentrations were calculated from mean of AUC0-24 h at each dose (divided the AUC0-24 h by 24 h). The mean biomarker data were compared to the PK data (average concentration at each dose) for the modeling. The IC80 was determined using the Inhibitory effect Imax model (effect C=0 at Imax, C=infinity at E0) built in Phoenix WinNonlin 6.3 software. […] Therefore, we chose to use a mean of the IC80 for the four biomarkers (total bilirubin, total bile acids, ALT and AST) as the IC80 for efficacy in this model. […]
The PK samples (pre-dose, 0.5, 1, 3, 7, 10 and 24 h, n=3/dose group) were taken on day 13 (at steady-state). AUC0-24 h was determined using Phoenix WinNonlin 6.3 software and the average concentrations were calculated from mean of AUC0-24 h at each dose (divided the AUC0-24 h by 24 h). […] The IC80 was determined using the Inhibitory effect Imax model (effect C=0 at Imax, C=infinity at E0) built in Phoenix WinNonlin 6.3 software.

[3] = Single oral dose plasma pharmacokinetics in healthy subjects; format: in vivo; conditions: dose range 10 μg to 3000 μg, human
[4] = Multiple oral dose plasma pharmacokinetics in healthy subjects; format: in vivo; conditions: human
[5] = Food effect (high-fat meal vs fasted) on pharmacokinetics; format: in vivo; conditions: human
Procedure: To avoid variability in drug exposure, it is recommended that throughout the treatment period, patients will be directed to take study drug at home with ˜240 mL (8 ounces) of water in the morning in a fasting state, at least 30 min prior to the first beverage apart from water and 60 min prior to first meal of the day, preferably at the same time of the day.

[6] = Safety and tolerability in healthy subjects; format: in vivo, human; conditions: repeated daily 100 μg; one ALT>ULN, one ALT>3×ULN, one ALT>5×ULN
[7] = Estimation of human efficacious dose from rat efficacious exposure and human PK; conditions: human, plasma, oral, 6 μg; estimated, molar
Procedure: The human efficacy dose was calculated based on the efficacious exposure in the rat ANIT-induced disease model. Since the in vitro potency and protein binding between human and rat were similar, the EC80 exposure in human was assumed to be the same as that in rat (3.05 ng*h/mL),

FGF19 = conditions: single and repeated dosing, human
FXR = target: T1, FXR (Homo sapiens, UniProt Q96RI1); conditions: clinical studies in PBC or NASH subjects; cited from earlier work
T1 construct: OCA was tested at doses between 5 mg and 50 mg in PBC subjects or NASH subjects; host or cells: human subjects (PBC, NASH), endogenous receptor
T1 sequence (Q96RI1 1-486): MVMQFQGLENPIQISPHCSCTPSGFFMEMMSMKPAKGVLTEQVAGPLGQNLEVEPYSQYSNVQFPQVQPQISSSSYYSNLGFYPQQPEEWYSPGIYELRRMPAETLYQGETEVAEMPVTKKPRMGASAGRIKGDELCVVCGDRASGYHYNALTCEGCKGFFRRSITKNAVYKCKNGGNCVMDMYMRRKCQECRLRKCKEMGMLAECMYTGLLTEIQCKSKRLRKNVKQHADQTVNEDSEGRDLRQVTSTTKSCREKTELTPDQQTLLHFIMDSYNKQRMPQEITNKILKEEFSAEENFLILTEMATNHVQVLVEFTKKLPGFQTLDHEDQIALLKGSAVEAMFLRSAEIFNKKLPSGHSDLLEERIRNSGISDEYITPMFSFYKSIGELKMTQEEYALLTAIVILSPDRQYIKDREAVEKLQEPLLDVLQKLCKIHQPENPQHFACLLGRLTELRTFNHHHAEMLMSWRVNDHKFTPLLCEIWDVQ

Structure (SMILES)	dose from which hepatobiliary injury indicators (AST, ALT, bilirubin, bile acids) improved (ANIT-induced cholestasis [1])	IC80, total bilirubin (ANIT-induced cholestasis [2])	dose dependence of mean Cmax and AUCinf [3]	dose dependence of Cmax and AUC (AUCtau/AUCinf), plasma exposure ([4]; multiple once daily doses, dose range 10 μg to 100 μg)	day by which steady-state was reached ([4]; once daily oral dosing 10-100 μg, trough levels)	median Tmax, fasted state ([5]; fasted comparator of food effect)	increase of mean AUCinf with high-fat meal compared to the fasted state [5]	increase of mean Cmax with high-fat meal compared to the fasted state [5]	subjects with elevation of transaminases (ALT and AST) [6]	Cmax [7]	FGF19 response to dose (FGF19)	side effect associated with treatment (FXR)
O=C(O)c1cc(F)c2nc(N3C4CC[C@H]3CC(OCc3c(-c5ccccc5OC(F)(F)F)noc3C3CC3)C4)sc2c1 (stereo partly drawn) [Compound A, 2-[(1R,3r,5S)-3-({5-cyclopropyl-3-[2-(trifluoromethoxy)phenyl]-1,2-oxazol-4-yl}methoxy)-8-azabicyclo[3.2.1]octan-8-yl]-4-fluoro-1,3-benzothiazole-S-carboxylic acid]	0.01 mg/kg	0.223 ng/mL (≈ 0.369 nM)	approximately dose proportional increase	approximately dose-proportional increase; also recorded: approximately dose proportional increase	≤ 4 days	4 h	approximately 60%	approximately 60%	3 subjects	~0.3 nM	dose-dependent increases in FGF19	
CC[C@H]1[C@@H](O)[C@@H]2[C@H](CC[C@]3(C)[C@@H]([C@H](C)CCC(=O)O)CC[C@@H]23)[C@@]2(C)CC[C@@H](O)C[C@@H]12 [OCA, 6α-ethyl-chenodeoxycholic acid]												increased pruritus
